Laboratory results from patent publication US20260245700A1, “METHOD FOR GIVING A RECOMMENDATION ON THE DIETARY ENERGY OF A POULTRY DIET” (Evonik Operations GmbH, priority 2023, published 2026).
Where two headings read alike, the source gives them in different places.

Tests used:
[1] = system: broilers; assay: Trials in which GAA compensates dietary energy reduction (energy-sparing value); assay type: in vivo
Excerpt: Reduction of dietary energy content and adding GAA to the feed restored broiler performance, which supports this conclusion (Malins et al., 2017; Mousavi S. N., Afsar A., Lotfollahian H. (2013) Effects of guanidinoacetic acid supplementation to broiler diets with varying energy contents, Journal of Applied Poultry Research, Volume 22, Issue 1, 2013, Pages 47-54, ISSN 1056-6171, https://doi.org/10.3382/japr.2012-00575; Heger, J., J. Zelenka, V. Machander, C. Cruz, M. Lestak, and D. Hampel. (2014) “Effects of Guanidinoacetic Acid Supplementation to Broiler Diets with Varying Energy Content.” Acta Universitatis Agriculturae Silviculturae Mendelianae Brunensis 62: 477-485. doi:10.11118/actaun201462030477; Abudabos, A. M., F. Saleh, A. Lemme, and H. A. H. Zakaria (2014) “The Relationship between Guanidino Acetic Acid and Metabolisable Energy Level of Diets on Performance of Broiler Chickens.” Italian Journal of Animal Science 13: 548-556. doi:10.4081/ijas.2014.3269).
The energy reduction level as well as the GAA supplementation rate was not always the same in trails in which GAA was used to compensate for energy reduction. In most trials dietary energy level of a standard diet was reduced by 50 kcal/kg feed and 0.06% GAA was supplemented to maintain bird performance. This would be equivalent to an energy-sparing value of 83.333 kcal/kg of GAA. However, considering all 20 identified independent trials in which GAA was used to compensate for dietary energy reduction, a wide range of energy-sparing values from 41.667 to 568.333 kcal/kg was tested. […] It can be predicted that an energy-sparing value of 163.889 kcal/kg GAA maintains BWG of the birds, whereas there is still a small improvement for FCR. For FCR, it was found out that even an energy-sparing value of 197.222 kcal/kg GAA maintains performance.

[2] = system: broilers; settings: GAA supplemented in broiler diets, compared to non-supplemented diets, asymptotic; cited from earlier work
[3] = system: broilers; settings: linear regression, relative scale, control = 100%, cited from earlier work
[4] = system: broiler chickens; settings: cited from earlier work
[5] = system: broilers; settings: reduced dietary energy content plus GAA added to the feed; cited from earlier work
[6] = system: broilers; settings: EFSA 2009; Tossenberger et al. 2016; cited from earlier work
[7] = Vranes et al. 2017; relatively stable during pelleting or extruding; cited from earlier work

With `N=C(N)NCC(=O)O` [GAA, Guanidinoacetic acid] the “energy-sparing value that maintains performance for FCR” value ([1]; from 20 independent trials) was 197.222 kcal/kg GAA, the “energy GAA can compensate (energy-sparing value)” value ([1]; overall, 20 independent trials) was “more than 83.333 kcal/kg” and the “energy-sparing value that maintains BWG” value ([1]; predicted from 20 independent trials, still a small improvement for FCR) was 163.889 kcal/kg GAA. The “increase of muscle CREA, maximum” value [2] was no more than 29%, the FCR improvement ([3]; GAA dose 0.6 g/kg) was 4.5 points and the FCR improvement ([3]; GAA dose 1.2 g/kg) was 8.8 points. For the same compound, the replacement efficiency ([4]; 1.7 g/kg L-ARG compensated by 1.2 g/kg GAA (Dilger et al. 2013)) was 142%, the “circulatory ARG levels” value ([4]; birds fed ARG-deficient diets (DeGroot et al. 2018)) was “increased” and the L-ARG compensated ([4]; by 1.2 g/kg GAA (Dilger et al. 2013)) was 1.7 g/kg. For the same compound, the “supplemental L-ARG needed to reach a given feed conversion ratio” value ([4]; very ARG-deficient diet, at 1.2 g/kg supplemental GAA (Dilger et al. 2013)) was 2.1 g/kg, the ARG-sparing effect ([4]; very deficient ARG diets (Dilger et al. 2013)) was 143% and the broiler performance [5] was “restored”. The bioavailability [6] was “high” and the thermal stability [7] was “high”.
